Results from patent US7847132B2, “Hepatic fibrosis inhibitor” (Nippon Hypox Laboratories Incorporated, priority 2008, dated 2010).
Marks after values point to notes of the source that are not given here.

Key:
[1] = system: rat model with carbon tetrachloride-induced liver cirrhosis; test: Rat model with carbon tetrachloride-induced liver cirrhosis, Experimental Example 1 (compound 1 0.3 mg/mL in potable water); type: in vivo
Experimental: (§1) To six-week-old Wister male rats, 3 mL/kg of olive oil containing 40% of carbon tetrachloride or olive oil only were subcutaneously administered twice per week for eight weeks. On a parallel with the administration of the carbon tetrachloride, potable water in which 2,3,5-trimethyl hydroquinone-1-hexylether (compound 1) of the hydroquinone derivative identified by the aforementioned general chemical formula (1) is dissolved at a concentration of 0.3 mg/mL was given to one group of rats daily. Simultaneously, to another groups of rats, only water was given.
(§2) There were adopted four animal groups, i.e. olive oil administration group, olive oil-plus-compound 1 administration group, carbon tetrachloride administration group, and carbon tetrachloride-plus-compound 1 administration group, in the experimental example. Each group consists of ten animals. The animals were slaughtered eight weeks after start of administration of the carbon tetrachloride to carry out an examination. The examination items include ELISA measurement of the serum antibody valency of Naofen and RT-PCR measurement of the mRNA-expression level of Naofen in the liver.

[2] = system: rat model with carbon tetrachloride-induced liver cirrhosis; test: Rat model with carbon tetrachloride-induced liver cirrhosis, Experimental Example 2 (compound 1 0.1 mg/mL in potable water); type: in vivo; conditions: for HA / ALB / ALT / AST / T-Bil: blood; for HA / ALB / ALT / AST / T-Bil / Body weight / Hepatic relative weight / Pancreatic relative weight / Number of animals with ascites retention: n = 10
Experimental: as §1, §2
An experimental examination was carried out with a rat model with carbon tetrachloride-induced liver cirrhosis in the same manner as the aforementioned experimental Example 1 except for use of the compound 1 with a concentration of 0.1 mg/mL. The examination includes measurements of some hepatic damage indexes such as blood AST, ALT, albumin (ALB) and total bilirubin (T-Bil), measurement of hyaluronan (HA) concentration serving as a maker of hepatic fibrosis, autopsy finding, measurements of body weight and organ weight, measurements of expression levels of TGF-β1 mRNA and type-I collagen mRNA in biologic cells by RT-PCR, and a histopathologic inspection.
The examination results of measurements of the liver weight, spleen weight, and number of animals with ascites retention are shown in Table 3. FIGS. 4 and 5 are photographs of hepatic tissues taken by using a Masson staining method and an immunohistochemical staining method (A: olive oil administration case, B: carbon tetrachloride administration case, C: olive oil-plus-compound 1 administration case, and D: carbon tetrachloride-plus-compound 1 administration case; and horizontal line on the bottom right: 100 μm).

[3] = HX (+) group, 0.3 mg/mL in potable water, 8 weeks, total 7 animals
[4] = CCl4 + Compound 1 0.1 mg/mL in potable water, 8 weeks, mean ± SD
[5] = CCl4 + compound 1 0.1 mg/mL, result in words
[6] = Olive Oil + Compound 1 0.1 mg/mL in potable water, 8 weeks, mean ± SD
[7] = Olive Oil + Compound 1 0.1 mg/mL in potable water, 8 weeks

CCCCCCOc1cc(C)c(O)c(C)c1C [Compound 1, 2,3,5-trimethyl hydroquinone-1-hexylether]
increase in mRNA-expression level of Naofen in the liver (RT-PCR) ([1]; CCl4 + compound 1 0.3 mg/mL in potable water, weeks 6(+), weeks 8(+), FIG. 1): suppressed | number of animals with serum antibody valency of Naofen 4 < V < 16 (ELISA) [1, 3]: 1 | number of animals with serum antibody valency of Naofen V <= 4 (ELISA) [1, 3]: 4 | number of animals with serum antibody valency of Naofen V >= 16 (ELISA) [1, 3]: 2 | abnormality in olive oil-plus-compound 1 administration group ([1]; olive oil + compound 1 0.3 mg/mL in potable water, 8 weeks): no appreciable abnormality | antibody valency increase more than 16 times, compound 1 group (+) versus group (−), Fischer direct probability ([1]; serum antibody valency of Naofen, 0.3 mg/mL in potable water): significantly fewer | HA ([2]; CCl4 + Compound 1 0.1 mg/mL in potable water, 8 weeks, marker of hepatic fibrosis, mean ± SD): 237.7 ± 36.6*^+ ng/mL | ALB [2, 4]: 3.8 ± 0.2*^+ g/dL | ALT [2, 4]: 422.4 ± 60.5**^++ IU/L | AST [2, 4]: 603.6 ± 126.3**^++ IU/L | T-Bil [2, 4]: 0.03 ± 0.02^+ mg/dL | Body weight [2, 4]: 240.8 ± 8.7 g | Hepatic relative weight [2, 4]: 16.1 ± 1.8^+ g (per 100 grams of body weight) | Pancreatic relative weight [2, 4]: 0.28 ± 0.01^+ g (per 100 grams of body weight) | Number of animals with ascites retention ([2]; CCl4 + Compound 1 0.1 mg/mL in potable water, 8 weeks): 1 | increase in TGF-β1 mRNA-expression level in the liver (RT-PCR) ([2]; CCl4 + compound 1 0.1 mg/mL, FIG. 2): suppressing increase | increase in type-I collagen mRNA-expression level in the liver (RT-PCR) ([2]; CCl4 + compound 1 0.1 mg/mL, FIG. 3): suppressing increase | accumulation of fibrous tissue (histopathologic inspection, Masson staining) ([2]; CCl4 + compound 1 0.1 mg/mL, hepatic tissue, FIG. 4): suppressed | expression of TGF-β1 (histopathologic inspection, immunohistochemical staining) ([2]; CCl4 + compound 1 0.1 mg/mL, hepatic tissue, FIG. 5): suppressed | increase in ALT due to administration of carbon tetrachloride [2, 5]: suppressing increase | increase in AST due to administration of carbon tetrachloride [2, 5]: suppressing increase | increase in hyaluronan concentration due to administration of carbon tetrachloride [2, 5]: suppressing increase | ALB [2, 6]: 4.3 ± 0.1 g/dL | ALT [2, 6]: 93.7 ± 34.1 IU/L | AST [2, 6]: 192.7 ± 93.4 IU/L | HA [2, 6]: 136.7 ± 16.6 ng/mL | T-Bil [2, 7]: 0 mg/dL | Body weight [2, 6]: 361.5 ± 1.5 g | Hepatic relative weight [2, 6]: 14.8 ± 1.5 g (per 100 grams of body weight) | Pancreatic relative weight [2, 6]: 0.20 ± 0.01 g (per 100 grams of body weight) | Number of animals with ascites retention [2, 7]: 0 | abnormality in olive oil-plus-compound 1 administration group ([2]; olive oil + compound 1 0.1 mg/mL in potable water, 8 weeks): no appreciable abnormality
